Among the data in patent US8366935B2, “Phyllanthus extract” (Phytrix Inc., priority 2008, dated 2013) are Kd values, retold here.

Molecules are shown by their SMILES.

The term Kd denotes the equilibrium constant for the complex coming apart. Low readings indicate higher affinity, high ones lower affinity.

The test has as its target T1, gp120 (Human immunodeficiency virus type 1 group M subtype B, UniProt P03375).
T1 construct: loaded with 25 μl of 6 mg/ml of gp120 (25 μM) in PBS pH 7.2
The experiment in a line: biochemical. It is filed as binding, HIV. As for the experimental part:
If needed, experiments were repeated within a smaller concentration range (i.e., 10 trials from 0.01 to 0.10 mmol). A total volume of either 50 μl was used in each analysis. Analytes were loaded in the opposite side of the membrane and equilibrium was obtained after incubation of 12 hrs at 23° C. The association constants were determined by non-linear regression analysis. Concentrations of compounds analysed were determined by HPLC analysis by comparison against an internal control (diethyl-7-dimethylaminocoumarineacetamide). HPLC controls were run with an equimolar amount of control and analyte. The relative concentrations of each analyte were determined at both sides of the membrane. […] Each data point was recollected after regeneration of the dialysis setup by exposing the non-protein containing face of the membrane to 5 ml of PBS pH 7.2 twice for 4 to 10 hrs at 23° C.
Regarding `O=C(O[C@@H]1O[C@@H]2COC(=O)c3cc(O)c(O)c(O)c3-c3c(cc(O)c(O)c3O)C(=O)O[C@H]([C@H]1O)[C@@H]2O)c1cc(O)c(O)c(O)c1` [Corilagin], binding was put at a Kd of 120 nM. Molecule `O=C(O)c1cc(O)c(O)c(O)c1` [Gallic acid] displayed a dissociation constant Kd of at least 100000 nM. In turn, `O=C1O[C@H]2[C@@H]3OC(=O)c4cc(O)c(O)c(O)c4-c4c(cc(O)c(O)c4O)C(=O)OC[C@H]2O[C@@H](OC(=O)c2cc(O)c(O)c(O)c2)[C@@H]3OC(=O)c2cc(O)c(O)c3c2[C@@H]2C1=CC(=O)[C@](O)(O3)C2(O)O` [Geraniin] displayed a dissociation constant Kd of 76 nM.

`Cc1c(O)c(O)cc2c1C(/C(=C/C(=O)O)C(=O)OC1C3COC(=O)c4cc(O)c(O)c(O)c4-c4c(cc(O)c(O)c4O)C(=O)OC1C(O)C(OC(=O)c1cc(O)c(O)c(O)c1)O3)C(C(=O)O)OC2=O` (stereo not shown) [Repandusinic acid]: binding was characterised by a dissociation constant (Kd) of 22 nM.
